{
  "source": "patent US20230270781A1",
  "about": "“TREATMENT OR PREVENTION OF PRO-INFLAMMATORY DISEASES OR CONDITIONS USING INDUCED REGULATORY T (ITREG) CELLS” (RAPA THERAPEUTICS, LLC, priority 2020, published 2023)",
  "key": {"[1]": {"system": "T cell TCR specificities of peripheral blood mononuclear cells", "assay": "RNA-based T cell receptor repertoire profiling pre- and post-etanercept therapy", "assay_type": "in vivo, human", "description": "(§1) FIGS. 23A & 23B depict the use of RNA-based T cell receptor sequencing to detect a widespread up- and down-regulation of T cell TCR specificities after therapy with the TNF-α inhibitor, etanercept. In FIG. 23, RNA was isolated from peripheral blood mononuclear cells from an patient pre- and post-therapy with etanercept therapy. The RNA was subjected to TCR repertoire profiling, as previously described by Rosati E, Dowds CM, Liaskou E, Henriksen EKK, Karlsen TH, Franke A. Overview of methodologies for T-cell receptor repertoire analysis. BMC Biotechnol. 2017;17(1):61.\nas §1, with “FIGS. 36A-36B” for “FIGS. 23A & 23B”, “depict” for “depict the”, “In FIGS. 36A-36B,” for “In FIG. 23,”, “from a” for “from an”"}, "[2]": {"system": "human CD4+ and CD8+ T cells", "assay": "RNA expression analysis (Luminex Quantigene) after 3-day de-differentiation culture", "assay_type": "cell-based", "conditions": "relative to control Th1/Tc1 culture, temsirolimus 1 µM", "method": "At the end of the de-differentiation interval, cells were harvested, RNA was isolated, and RNA expression analysis was performed by Luminex Quantigene method. All results shown represent relative RNA expression, with results normalized to a value of 1.0 for the Th1/Tc1 control culture."}, "[3]": {"system": "human CD4+ and CD8+ T cells", "assay": "Western blot for Raptor, Rictor, p70S6K, SGK1 after 3-day de-differentiation culture", "assay_type": "cell-based", "conditions": "relative to control culture without the three inhibitors; temsirolimus 1 µM, Vitamin D 0.03-1.0 nM, Daclizumab 50 µg/ml", "description": "After the 3-day culture interval, the T cells were harvested, and protein was isolated and subjected to western blot analysis for the mTORC1 complex protein, Raptor; the mTORC2 complex protein, Rictor; the post-mTORC1 protein p70S6K; the post-mTORC2 protein, SGK1; and the housekeeping gene, GAPDH."}, "[4]": {"system": "human CD4+ and CD8+ T cells", "assay": "Luminex cytokine secretion in extended hybrid Th2/TREG culture (days 12, 20, 32)", "assay_type": "cell-based", "conditions": "for ability of T cells to secrete IL-5 / ability of T cells to secrete IL-13: inhibitor in TREG-Th2 re-differentiation culture: temsirolimus 1.0 µM or pemetrexed 10 nM", "description": "(§2) FIGS. 21A-21D illustrates that extended culture of de-differentiated T cells in the hybrid Th2/TREG polarization condition results in the generation of T cells expressing with a predominant Th2 cytokine phenotype: IL-4, IL-5, and IL-13 secretion. […] At days 12, 20, and 32 of culture, the T cells were harvested, washed, and restimulated with 3/28 beads (3:1 ratio) for 24 hr; the resultant supernatant was harvested and tested for cytokine content by Luminex multi-analyte method. All results shown are expressed as cytokine level in pg per ml per 1 × 10^6 cells/ml/24 hr. The Th2 cytokine IL-10 was also evaluated: all values were less than 20 pg/ml per 1 × 10^6 cells/ml/24 hr.\nas §2, with “22A-22D illustrate” for “21A-21D illustrates”, “IL-2, IFN-γ,” for “IL-4, IL-5,”, “GM-CSF” for “IL-13”, “inflammatory cytokines IL-17 and TNF-α were” for “Th2 cytokine IL-10 was”"}, "[5]": {"system": "human CD4+ and CD8+ T cells", "assay": "Western blot for mTORC1 complex protein Raptor after 3-day de-differentiation culture", "assay_type": "cell-based", "description": "After the 3-day culture interval, the T cells were harvested, and protein was isolated and subjected to western blot analysis for the mTORC1 complex protein, Raptor, and the housekeeping gene, Actin."}, "[6]": {"system": "human CD4+ and CD8+ T cells", "assay": "T cell yield at day 13 after de-differentiation interval and re-stimulation without inhibitors", "assay_type": "cell-based", "conditions": "column #7; temsirolimus reduced to 0.1 µM", "method": "After 10 days (13 days of total culture), the T cells were harvested, enumerated, and evaluated by flow cytometry. FIG. 8 illustrates the effect of culture components during the de-differentiation interval on subsequent T cell yield (at day 13 of culture). […] After the 3-day interval, media was exchanged to fresh X-Vivo 20 without inhibitors, high-level co-stimulation was provided (3:1 bead-to-T cell ratio), and the T cell growth cytokines IL-2 (100 IU/ml) and IL-7 (10 ng/ml) were added. At day 13 of culture, viable T cells were enumerated and the overall yield is shown relative to day 0 input number."}, "[7]": {"system": "human CD4+ and CD8+ T cells", "assay": "Expansion of de-differentiated T cells in Th1, TREG or hybrid Th2/TREG polarization with or without pemetrexed", "assay_type": "cell-based", "method": "Human CD4^+ and CD8^+ T cells were subjected to a 3-day de-differentiation procedure (“STEP 1”). […] In addition, the T cell culture in the presence of the variable polarization conditions was performed without the novel inhibitory molecule, pemetrexed (“0”) or in the presence of variable concentrations of pemetrexed, as indicated (10 nM [“10”]; 33 nM [“33”]; or 100 nM [“100”]. After a total of 10 days of culture, the n=24 cultures were harvested and live cells were enumerated and graphed above (y-axis indicated number of cells × 10^6; input cell number was 1.5 × 10^6 cells)."}, "[8]": {"system": "human CD4+ and CD8+ T cells", "assay": "Flow cytometry of FOXP3, Tbet, GATA3 in extended hybrid Th2/TREG culture (days 12, 20, 32)", "assay_type": "cell-based", "description": "To evaluate these transcription factors in our manufacturing method, T cells were first subjected to the step 1 de-differentiation procedure and then re-differentiated in the hybrid TREG-Th2 culture condition (IL-2, TGF-β, and IL-4). In addition, we compared the effects of pemetrexed with a classical mTOR inhibitor.\nThe iTREG phenotype is considered to be unstable; as such, we evaluated the stability of T cells re-differentiated using the hybrid TREG-Th2 culture condition at delayed time points, including days 20 and 32 of culture. In addition, to test phenotype stability in a rigorous manner, between day 24 and day 32 of culture, T cells received a high level of co-stimulation (3:1 bead-to-T cell ratio) and were propagated in media without cytokines or pharmacologic agents.\nFIGS. 19A-19D illustrate that extended culture of de-differentiated T cells in the hybrid Th2/TREG polarization condition containing pemetrexed results in the generation of CD4^+ T cells expressing FOXP3 and GATA3 transcription factors. […] At days 12, 20, and 32 of culture, T cells were harvested and subjected to surface flow cytometry (CD4 marker) and intra-cellular staining for the following transcription factors, FOXP3, Tbet, and GATA3. The data above show the percent CD4 cells out of the total cultured population (FIG. 19A); the percent of CD4 cells that expressed the TREG transcription factor FOXP3 (FIG. 19B); the percent of CD4 cells that expressed the Th1 transcription factor Tbet (FIG. 19C); and the percent of CD4 cells that expressed the Th2 transcription factor GATA3 (FIG. 19D).\nFIGS. 20A-20D illustrate that extended culture of de-differentiated T cells in the hybrid Th2/TREG polarization condition containing pemetrexed results in the generation of CD8^+ T cells expressing FOXP3 and GATA3 transcription factors. […] At days 12, 20, and 32 of culture, T cells were harvested and subjected to surface flow cytometry (CD8 marker) and intra-cellular staining for the following transcription factors, FOXP3, Tbet, and GATA3. […]"}, "[9]": {"system": "human CD4+ and CD8+ T cells", "assay": "Western blot for pro-apoptosis molecule BIM after 3-day de-differentiation culture", "assay_type": "cell-based", "conditions": "1:3 bead-to-T cell ratio; temsirolimus, Vitamin D 0.1 nM, Daclizumab 50 µg/ml", "description": "After the 3-day culture interval, the T cells were harvested, and protein was isolated and subjected to western blot analysis for the pro-apoptosis-related gene, BIM, and the housekeeping gene, Actin."}, "[10]": {"conditions": "patient PBMC, post- versus pre-etanercept"}, "[11]": {"conditions": "3-day culture, bead-to-T cell ratio 1:3, Vitamin D 0.1 or 1.0 nM"}},
  "data": [
    {"molecule": "etanercept", "values": [
      {"measurement": "post-treatment frequencies of contracted T cell clones (SEQ ID NOs: 1-3 and 5)", "setting": "[1]; decreased from frequencies of 259 to 598 pre-etanercept", "result": 0.01},
      {"measurement": "TCR specificities down-regulated in the post-therapy sample", "setting": "[1]; [10]", "result": "approximately 25%"},
      {"measurement": "TCR specificities up-regulated in the post-therapy sample", "setting": "[1]; [10]", "result": "approximately 25%"},
      {"measurement": "T cell clonal contraction", "setting": "[1]; post- versus pre-etanercept", "result": "more than 4 log"},
      {"measurement": "T cell clonal expansion", "setting": "[1]; post- versus pre-etanercept", "result": "more than 4 log"}
    ]},
    {"molecule": "CO[C@H]1C[C@@H]2CC[C@@H](C)[C@@](O)(O2)C(=O)C(=O)N2CCCC[C@H]2C(=O)O[C@H]([C@H](C)C[C@@H]2CC[C@@H](OC(=O)C(C)(CO)CO)[C@H](OC)C2)CC(=O)[C@H](C)/C=C(\\C)[C@@H](O)[C@@H](OC)C(=O)[C@H](C)C[C@H](C)/C=C/C=C/C=C/1C", "note": "[temsirolimus]", "values": [
      {"measurement": "Granzyme B RNA expression", "setting": "[2]; [11]", "result": "reduction"},
      {"measurement": "IFN-gamma RNA expression", "setting": "[2]; [11]", "result": "reduction"},
      {"measurement": "IL-10 RNA expression", "setting": "[2]; [11]", "result": "reduction"},
      {"measurement": "IL-7 receptor alpha RNA expression", "setting": "[2]; Vitamin D 1.0 nM", "result": "capable of up-regulating"},
      {"measurement": "KLF4 RNA expression", "setting": "[2]; Vitamin D 1.0 nM", "result": "neither temsirolimus nor Vitamin D alone increased"},
      {"measurement": "KLF10 RNA expression", "setting": "[2]; Vitamin D 1.0 nM", "result": "acts alone to beneficially up-regulate"},
      {"measurement": "HIF-1-α RNA expression", "setting": "[2]; Vitamin D 0.1 to 1.0 nM", "result": "did not down-regulate"},
      {"measurement": "Nanog transcription factor RNA expression", "setting": "[2]; Vitamin D 0.1 to 1.0 nM", "result": "up-regulation"},
      {"measurement": "STAT1 RNA expression", "setting": "[2]; Vitamin D 0.1 to 1.0 nM", "result": "acts alone to beneficially down-regulate"},
      {"measurement": "T-BET RNA expression", "setting": "[2]; Vitamin D 0.1 to 1.0 nM", "result": "acts alone to beneficially down-regulate"},
      {"measurement": "Rictor expression (western blot)", "setting": "[3]", "result": "effective"},
      {"measurement": "ability of T cells to secrete IL-5", "setting": "[4]", "result": "blunted"},
      {"measurement": "ability of T cells to secrete IL-13", "setting": "[4]", "result": "blunted"},
      {"measurement": "Raptor expression at temsirolimus 0.3 µM", "setting": "[5]; culture 9, temsirolimus 0.3 µM, versus 1.0 µM", "result": "higher levels of Raptor expression"},
      {"measurement": "temsirolimus dose for optimal down-regulation of Raptor", "setting": "[5]; in combination with Vitamin D", "result": 1.0, "unit": "µM"},
      {"measurement": "T cell yield at day 13 with temsirolimus 0.1 µM", "setting": "[6]", "result": "reduced the resultant T cell yield"}
    ]},
    {"molecule": "Nc1nc2[nH]cc(CCc3ccc(C(=O)N[C@@H](CCC(=O)O)C(=O)O)cc3)c2c(=O)[nH]1", "note": "[pemetrexed]", "values": [
      {"measurement": "T cell number after re-differentiation in pure TREG polarization (IL-2 plus TGF-β without IL-4)", "setting": "[7]; most stringent step 1, cultures #20 and #21, in the presence of pemetrexed", "result": "unsuccessful"},
      {"measurement": "T cell number after re-differentiation in TREG-Th2 polarization", "setting": "[7]; step 1 temsirolimus, vitamin D, anti-IL-2 receptor antibody, pemetrexed 10 nM in step 2, 10 days", "result": "sufficient T cells"},
      {"measurement": "CD4 cells expressing GATA3", "setting": "[8]; end of culture, hybrid condition with pemetrexed 10 nM versus no inhibitor or temsirolimus", "result": "highest end-of-culture Th2-associated GATA3 expression"},
      {"measurement": "CD8+ T cells expressing TBET", "setting": "[8]; hybrid condition in the presence of pemetrexed 10 nM", "result": "lowest levels"},
      {"measurement": "CD4 cells expressing TBET", "setting": "[8]; hybrid polarization condition with pemetrexed 10 nM versus no inhibitor or temsirolimus", "result": "most consistently reduced TBET values"},
      {"measurement": "GM-CSF secretion", "setting": "[4]; TREG-Th2 hybrid culture supplemented with pemetrexed 10 nM", "result": "higher degree"},
      {"measurement": "ability of T cells to secrete IL-5", "setting": "[4]", "result": "fully preserved"},
      {"measurement": "ability of T cells to secrete IL-13", "setting": "[4]", "result": "fully preserved"}
    ]},
    {"molecule": "Daclizumab: anti-IL-2 receptor monoclonal antibody (antibody, chains of the INN, looked up, V domains shown) VH: QVQLVQSGAEVKKPGSSVKVSCKASGYTFTSYRMHWVRQAPGQGLEWIGYINPSTGYTEYNQKFKDKATITADESTNTAYMELSSLRSEDTAVYYCARGGGVFDYWGQGTLVTVSS VL: DIQMTQSPSTLSASVGDRVTITCSASSSISYMHWYQQKPGKAPKLLIYTTSNLASGVPARFSGSGSGTEFTLTISSLQPDDFATYYCHQRSTYPLTFGQGTKVEVK", "values": [
      {"measurement": "Rictor expression (western blot)", "setting": "[3]", "result": "did not abrogate"},
      {"measurement": "BIM expression (western blot, normalized by actin)", "setting": "[9]", "result": "beneficial role in suppressing"},
      {"measurement": "Raptor expression (western blot, normalized by actin)", "setting": "[5]; 1:3 bead-to-T cell ratio, temsirolimus 1.0 µM, Vitamin D 0.1 nM, daclizumab 50 µg/ml", "result": "beneficial role in suppressing"}
    ]}
  ]
}
